tested on: chromosomal GFP; experiment: CRISPRi GFP repression assay in E. coli; type: cell-based, Escherichia coli MG1655; settings: ligand dose response on arC9:231, SOB media, normalized to vector control
Excerpt: Escherichia coli MG1655, which have chromosomally integrated constitutive GFP and RFP expression, were used for in vivo screening, fluorescence measurements, and transformation assays. Cell transformation, plasmid maintenance, and verification of transformation were done as previously described using AmpR and CmR as selectable markers. EZ-rich defined growth medium (EZ-RDM, Teknoka) was used for in vivo fluorescence assays unless otherwise noted. Super optimal broth (S.O.B) medium was used for library outgrowth and screening. The arC9 ligands used (4-hydroxytamoxifen (4-HT), nafoxidine, beta-estradiol, and diethylstilbestrol) were all ordered from Sigma and resuspended in dimethyl sulfoxide (DMSO).
For individual PDZ-construct testing, colonies were cultured from plates, PDZ-dCas9 plasmid DNA recovered, separated from the RFP guide plasmid (pgRNA-bacteria Addgene ID: 44251) via restriction digestion with BsaI and co-transformed with a guide plasmid to repress chromosomal GFP. GFP repression for each construct was then tested in triplicate in a 96-well microplate reader (Tecan M1000) at 37° C. PDZ clones were grown with appropriate antibiotics, 0.2 nM aTc, dCas9, and inducer. OD600 nm absorbance was measured for each well. GFP signal was measured, normalized for OD600 nm and compared when the cultures were approaching saturation (80% of the maximum OD600 nm) The arC9 construct was treated and assayed in the same fashion as above with induction using […]. Fold changes for the effect of different ligands were calculated by normalizing the GFP/OD600 of the arC9 construct to that of a vector control and dividing the fluorescent values without ligand by the fluorescent values with ligand treatment. For single cell analysis of arC9, cells were grown for ˜6 hours with antibiotics and inducer, washed with PBS, and assayed for GFP fluorescence using a Sony SH800 cell sorter.

Row | Compound | effect of ligand on arC9:231 CRISPRi-based GFP repression
1 | C[C@]12CC[C@@H]3c4ccc(O)cc4CC[C@H]3[C@@H]1CC[C@@H]2O [beta-estradiol] | increased only with ligands that encourage the ER-LBD to enter an antagonist conformation
2 | CC/C(=C(/CC)c1ccc(O)cc1)c1ccc(O)cc1 [diethylstilbestrol] | increased only with ligands that encourage the ER-LBD to enter an antagonist conformation
3 | 4-hydroxytamoxifen [4-HT] | increased
4 | COc1ccc2c(c1)CCC(c1ccccc1)=C2c1ccc(OCCN2CCCC2)cc1 [nafoxidine] | increased

Source: patent US11008555B2 (The Regents of the University of California, priority 2015, dated 2021)
